Measurements taken from patent publication US20110177161A1, “PHARMACEUTICAL COMPOSITIONS OF [5(S)-(2'-HYDROXYETHOXY)-20(S)-CAMPTOTHECIN” (DR. REDDY'S LABORATORIES LIMITED, priority 2007, published 2011).

Legend:
[1] = test system: Osteosarcoma-17 xenograft; assay: Osteosarcoma tumor regression model; type: in vivo, mice; parameters: key: 6+: Maintained Complete Regression; 5+: Complete Regression; 4+: Partial Regression; 3+: Stable Disease; settings: 28 mg/kg oral gavage, [(d×5)2]3 schedule
Description: (§1) This test was carried out with the use of the methods described in Cancer, Res., Oct. 15, 64:20:7491-9 (2004), and in Clin. Cancer Res., Nov. 15:9 (15):5442-53 (2003).
(§2) All mice bearing subcutaneous (“Sc”) tumors measuring approximately 0.2-1 cm in diameter were treated with a test compound by oral gavage using [(d×5)2]3 schedule. […] The tumor response to the test compound was defined as follows: For individual tumors, partial regression (“PR”) was defined as a volume regression >50%, but with measurable tumor at all times. Complete regression (“CR”) was defined as disappearance of measurable tumor mass at some point within 12 weeks after initiation of therapy. Maintained CR is defined as no tumor re-growth within a 12-week study time frame. This time point was chosen because all studies lasted at least 12 weeks. Mice that died before the end of the 12-week study time, and prior to achieving a response, were considered as failures for tumor response.

Osteosarcoma-2 xenograft = assay: Osteosarcoma tumor regression model; type: in vivo, mice; parameters: key: 6+: Maintained Complete Regression; 5+: Complete Regression; 4+: Partial Regression; 3+: Stable Disease; settings: 28 mg/kg oral gavage, [(d×5)2]3 schedule
Description: as §1, §2

[2] = test system: Osteosarcoma-29 xenograft; assay: Osteosarcoma tumor regression model; type: in vivo, mice; parameters: key: 6+: Maintained Complete Regression; 5+: Complete Regression; 4+: Partial Regression; 3+: Stable Disease; settings: 28 mg/kg oral gavage, [(d×5)2]3 schedule
Description: as §1, §2

[3] = test system: Osteosarcoma-32 xenograft; assay: Osteosarcoma tumor regression model; type: in vivo, mice; parameters: key: 6+: Maintained Complete Regression; 5+: Complete Regression; 4+: Partial Regression; 3+: Stable Disease; settings: 28 mg/kg oral gavage, [(d×5)2]3 schedule
Description: as §1, §2

[4] = test system: Saos-2 cells over expressing functional BCRP#4; assay: cells; type: cell-based, human; settings: for IC50: Homo sapiens, SAOS-2, 144 h, read-out: BCRP mut#4 (IC50 (nM))
Description: (§3) The anticancer effect of 5(S)-(2′-hydroxyethoxy)-20(S)-camptothecin & 5(R)-(2′-hydroxyethoxy)-20(S)-camptothecin were evaluated versus the racemate 5(RS)-(2′-hydroxyethoxy)-20(S)-camptothecin on Saos-2 cells over expressing functional BCRP#4 and non-functional BCRP mut#10. The human osteosarcoma cell line, Saos-2, was obtained from ATCC (American Type Culture Collection, Cat#HTB-85, Manassas, Va.) and were maintained in DMEM containing 10% fetal bovine serum, 1% penicillin/streptomycin, and 2 mM glutamine. Saos-2 cells were transfected with either BCRP#4 to over express functional BCRP or BCRP#10 to over express non-functional BCRP transporter. The cells were plated in 96-well plates at a density of 1000 cells per each well in a 0.1 ml of medium and allowed to attach overnight. The next morning the medium was gently aspirated and serial dilutions of the compounds to be tested were added. The cells were incubated at 37° C. in a 5% CO2 incubator. After 6 days of exposure to the test drugs, 10µl of Alamar blue was added aseptically to each well and the plates were returned to the incubator for 6 hr. The amount of the fluorescent dye produced was measured on a Cytofluor.RTM. 2300 (Millipore, Bedford, Mass.) using an excitation wavelength of 530 nm and emission wavelength of 590 nm. The relative fluorescence units obtained were used to calculate the percentage growth at each concentration in relation to the untreated control values. From the percentage growth values the IC50 (inhibitory concentration required to inhibit the cell growth by 50% compared to control cells growth) values were derived.

[5] = test system: Saos-2 cells over expressing non-functional BCRP mut#10; assay: cells; type: cell-based, human; settings: for IC50: Homo sapiens, SAOS-2, 144 h, read-out: BCRP mut#10 (IC50 (nM))
Description: as §3

SMILES	Tumor response [1]	Tumor response (Osteosarcoma-2 xenograft)	Tumor response [2]	Tumor response [3]	IC50 [4]	IC50 [5]	fold more cytotoxic than 5(R)-(2′-hydroxyethoxy)-20(S)-camptothecin [4]	fold more cytotoxic than 5(R)-(2′-hydroxyethoxy)-20(S)-camptothecin [5]
CC[C@@]1(O)C(=O)OCc2c1cc1n(c2=O)C(OCCO)c2cc3ccccc3nc2-1 (mixture of isomers) [5(RS)-(2′-hydroxyethoxy)-20(S)-camptothecin, reference compound]	4+	5+	5+	3+	1260 nM	387 nM		
CC[C@@]1(O)C(=O)OCc2c1cc1n(c2=O)[C@@H](OCCO)c2cc3ccccc3nc2-1 [DRF-(5S,20S)-1042, 5(S)-(2′-hydroxyethoxy)-20(S)-camptothecin]	6+	6+	6+	6+	788 nM	213 nM	> 2.5 fold	~6 fold
